Experimental data taken from US8933070B2, “Methods of targeting PTEN mutant diseases and compositions therefor” (University Health Network, priority 2010, dated 2015).
Where two headings read alike, the source gives them in different places.

Legend:
[1] = biological target: IGF1R (Homo sapiens, UniProt P08069); assay: Kinase selectivity assay (CEREP, HTRF); assay type: biochemical; details: read-out: % Inhibition at 10 μM Concentration
Protocol: (§1) The inhibitory activity of selected compounds was evaluated against a panel of 45 different kinase enzymes by CEREP, France. The assays were performed using standard HTRF assay methods as documented by CEREP against the human orthologues of Abl kinase, Akt1/PKBa, AMPKa, BMX kinase (Etk), Brk, CaMK2a, CaMK4, CDC2/CDK1 (cycB), CHK1, CHK2, c-Met kinase, CSK, EphB4 kinase, ERK1, ERK2 (P42mapk), FGFR2 kinase, FGFR4 kinase, FLT-1 kinase (VEGFR1), FLT-3 kinase, Fyn kinase, IGF1R kinase, IRK (InsR), JNK 2, KDR kinase (VEGFR2), Lck kinase, Lyn kinase, MAPKAPK2, MEK1/MAP2K1, p38a kinase, p38d kinase, p38g kinase, PDGFRb kinase, PDK1, PKA, PKCa, PKCb1, PKCb2, PKCg, Ret kinase, ROCK2, RSK2, Src kinase, Syk, and TRKA. The % Inhibition was determined by the formula; % Inhibition=100×(1−(experimental value−background value)/(high activity control−background value)).

[2] = biological target: PKCbeta 1 (Homo sapiens, UniProt P05771); assay: Kinase selectivity assay (CEREP, HTRF); assay type: biochemical; details: read-out: % Inhibition at 10 μM Concentration
Protocol: as §1

[3] = system: HCC1954 basal breast cancer cell line; assay: Cell growth inhibition, Sulforhodamine B (SRB) assay; assay type: cell-based; details: Homo sapiens
Protocol: Aliquots (20 μl) from each concentration were overlaid to 80 μl of the pre-seeded cells in the 96-plates to make final concentrations of 10 nM to 50 μM. The cells were cultured for 5 days before the Sulforhodamine B (SRB) assay was performed to determine the compound's cell growth inhibition activity.
Sulforhodamine B (Sigma, Canada) is a water-soluble dye that binds to the basic amino acids of cellular proteins. Thus, colorimetric measurement of the bound dye provides an estimate of the total protein mass that is related to the cell number. The cells are fixed in situ by gently aspirating off the culture media and adding 50 μl ice cold 10% Trichloroacetic Acid (TCA) per well and incubated at 4° C. for 30-60 min. The plates are washed with water five times and allowed to air dry for 5 min. Addition of 50 μl 0.4% (w/v) SRB solution in 1% (v/v) acetic acid to each well and incubatation for […] at RT completes the staining reaction. Following staining, plates are washed four times with 1% acetic acid to remove unbound dye and then allowed to air dry for 5 min. […] Absorbance is read at 570 nm.
The percentage (%) of relative growth inhibition was calculated by comparing to DMSO-treated only cells (100%). GI50's were determined for compounds with cytotoxic activity. The GI50 was calculated using GraphPad PRISM software (GraphPad Software, Inc., USA).
The SRB assay described above was used to assay test compounds against the extended panel (Table 6).

[4] = biological target: PKA (Homo sapiens, UniProt P17612); assay: Kinase selectivity assay (CEREP, HTRF); assay type: biochemical; details: read-out: % Inhibition at 10 μM Concentration
Protocol: as §1

[5] = biological target: Ret (Homo sapiens, UniProt P07949); assay: Kinase selectivity assay (CEREP, HTRF); assay type: biochemical; details: read-out: % Inhibition at 10 μM Concentration
Protocol: as §1

[6] = biological target: CHK2 (Homo sapiens, UniProt O96017); assay: Kinase selectivity assay (CEREP, HTRF); assay type: biochemical; details: read-out: % Inhibition at 10 μM Concentration
Protocol: as §1

[7] = biological target: IRK (InsR) (Homo sapiens, UniProt P06213); assay: Kinase selectivity assay (CEREP, HTRF); assay type: biochemical; details: read-out: % Inhibition at 10 μM Concentration
Protocol: as §1

[8] = biological target: PDGFRbeta (Homo sapiens, UniProt P09619); assay: Kinase selectivity assay (CEREP, HTRF); assay type: biochemical; details: read-out: % Inhibition at 10 μM Concentration
Protocol: as §1

[9] = biological target: ERK1 (Homo sapiens, UniProt P27361); assay: Kinase selectivity assay (CEREP, HTRF); assay type: biochemical; details: read-out: % Inhibition at 10 μM Concentration
Protocol: as §1

[10] = biological target: RSK2 (Homo sapiens, UniProt P51812); assay: Kinase selectivity assay (CEREP, HTRF); assay type: biochemical; details: read-out: % Inhibition at 10 μM Concentration
Protocol: as §1

[11] = biological target: Lyn (Homo sapiens, UniProt P07948); assay: Kinase selectivity assay (CEREP, HTRF); assay type: biochemical; details: read-out: % Inhibition at 10 μM Concentration
Protocol: as §1

[12] = biological target: Lck (Homo sapiens, UniProt P06239); assay: Kinase selectivity assay (CEREP, HTRF); assay type: biochemical; details: read-out: % Inhibition at 10 μM Concentration
Protocol: as §1

[13] = biological target: ROCK2 (Homo sapiens, UniProt O75116); assay: Kinase selectivity assay (CEREP, HTRF); assay type: biochemical; details: read-out: % Inhibition at 10 μM Concentration
Protocol: as §1

[14] = biological target: BMX (Etk) (Homo sapiens, UniProt P51813); assay: Kinase selectivity assay (CEREP, HTRF); assay type: biochemical; details: read-out: % Inhibition at 10 μM Concentration
Protocol: as §1

[15] = biological target: Fyn (Homo sapiens, UniProt P06241); assay: Kinase selectivity assay (CEREP, HTRF); assay type: biochemical; details: read-out: % Inhibition at 10 μM Concentration
Protocol: as §1

[16] = biological target: p38gamma (Homo sapiens, UniProt P53778); assay: Kinase selectivity assay (CEREP, HTRF); assay type: biochemical; details: read-out: % Inhibition at 10 μM Concentration
Protocol: as §1

[17] = biological target: CSK (Homo sapiens, UniProt P41240); assay: Kinase selectivity assay (CEREP, HTRF); assay type: biochemical; details: read-out: % Inhibition at 10 μM Concentration
Protocol: as §1

[18] = biological target: Brk (Homo sapiens, UniProt Q13882); assay: Kinase selectivity assay (CEREP, HTRF); assay type: biochemical; details: read-out: % Inhibition at 10 μM Concentration
Protocol: as §1

[19] = biological target: CaMK4 (Homo sapiens, UniProt Q16566); assay: Kinase selectivity assay (CEREP, HTRF); assay type: biochemical; details: read-out: % Inhibition at 10 μM Concentration
Protocol: as §1

[20] = biological target: MAPKAPK2 (Homo sapiens, UniProt P49137); assay: Kinase selectivity assay (CEREP, HTRF); assay type: biochemical; details: read-out: % Inhibition at 10 μM Concentration
Protocol: as §1

[21] = biological target: p38alpha (Homo sapiens, UniProt Q16539); assay: Kinase selectivity assay (CEREP, HTRF); assay type: biochemical; details: read-out: % Inhibition at 10 μM Concentration
Protocol: as §1

[22] = biological target: PKCgamma (Homo sapiens, UniProt P05129); assay: Kinase selectivity assay (CEREP, HTRF); assay type: biochemical; details: read-out: % Inhibition at 10 μM Concentration
Protocol: as §1

[23] = biological target: MEK1/MAP2K1 (Homo sapiens, UniProt Q02750); assay: Kinase selectivity assay (CEREP, HTRF); assay type: biochemical; details: read-out: % Inhibition at 10 μM Concentration
Protocol: as §1

[24] = biological target: FLT-1 (VEGFR1) (Homo sapiens, UniProt P17948); assay: Kinase selectivity assay (CEREP, HTRF); assay type: biochemical; details: read-out: % Inhibition at 10 μM Concentration
Protocol: as §1

[25] = biological target: CaMK2alpha (Homo sapiens, UniProt Q9UQM7); assay: Kinase selectivity assay (CEREP, HTRF); assay type: biochemical; details: read-out: % Inhibition at 10 μM Concentration
Protocol: as §1

[26] = biological target: PDK1 (Homo sapiens, UniProt O15530); assay: Kinase selectivity assay (CEREP, HTRF); assay type: biochemical; details: read-out: % Inhibition at 10 μM Concentration
Protocol: as §1

[27] = biological target: TRKA (Homo sapiens, UniProt P04629); assay: Kinase selectivity assay (CEREP, HTRF); assay type: biochemical; details: read-out: % Inhibition at 10 μM Concentration
Protocol: as §1

[28] = biological target: PKCalpha (Homo sapiens, UniProt P17252); assay: Kinase selectivity assay (CEREP, HTRF); assay type: biochemical; details: read-out: % Inhibition at 10 μM Concentration
Protocol: as §1

[29] = HCC1954, 120 h, read-out: Cell Line GI50 Range HCC1954

Sequence of IGF1R (P08069 31-1367): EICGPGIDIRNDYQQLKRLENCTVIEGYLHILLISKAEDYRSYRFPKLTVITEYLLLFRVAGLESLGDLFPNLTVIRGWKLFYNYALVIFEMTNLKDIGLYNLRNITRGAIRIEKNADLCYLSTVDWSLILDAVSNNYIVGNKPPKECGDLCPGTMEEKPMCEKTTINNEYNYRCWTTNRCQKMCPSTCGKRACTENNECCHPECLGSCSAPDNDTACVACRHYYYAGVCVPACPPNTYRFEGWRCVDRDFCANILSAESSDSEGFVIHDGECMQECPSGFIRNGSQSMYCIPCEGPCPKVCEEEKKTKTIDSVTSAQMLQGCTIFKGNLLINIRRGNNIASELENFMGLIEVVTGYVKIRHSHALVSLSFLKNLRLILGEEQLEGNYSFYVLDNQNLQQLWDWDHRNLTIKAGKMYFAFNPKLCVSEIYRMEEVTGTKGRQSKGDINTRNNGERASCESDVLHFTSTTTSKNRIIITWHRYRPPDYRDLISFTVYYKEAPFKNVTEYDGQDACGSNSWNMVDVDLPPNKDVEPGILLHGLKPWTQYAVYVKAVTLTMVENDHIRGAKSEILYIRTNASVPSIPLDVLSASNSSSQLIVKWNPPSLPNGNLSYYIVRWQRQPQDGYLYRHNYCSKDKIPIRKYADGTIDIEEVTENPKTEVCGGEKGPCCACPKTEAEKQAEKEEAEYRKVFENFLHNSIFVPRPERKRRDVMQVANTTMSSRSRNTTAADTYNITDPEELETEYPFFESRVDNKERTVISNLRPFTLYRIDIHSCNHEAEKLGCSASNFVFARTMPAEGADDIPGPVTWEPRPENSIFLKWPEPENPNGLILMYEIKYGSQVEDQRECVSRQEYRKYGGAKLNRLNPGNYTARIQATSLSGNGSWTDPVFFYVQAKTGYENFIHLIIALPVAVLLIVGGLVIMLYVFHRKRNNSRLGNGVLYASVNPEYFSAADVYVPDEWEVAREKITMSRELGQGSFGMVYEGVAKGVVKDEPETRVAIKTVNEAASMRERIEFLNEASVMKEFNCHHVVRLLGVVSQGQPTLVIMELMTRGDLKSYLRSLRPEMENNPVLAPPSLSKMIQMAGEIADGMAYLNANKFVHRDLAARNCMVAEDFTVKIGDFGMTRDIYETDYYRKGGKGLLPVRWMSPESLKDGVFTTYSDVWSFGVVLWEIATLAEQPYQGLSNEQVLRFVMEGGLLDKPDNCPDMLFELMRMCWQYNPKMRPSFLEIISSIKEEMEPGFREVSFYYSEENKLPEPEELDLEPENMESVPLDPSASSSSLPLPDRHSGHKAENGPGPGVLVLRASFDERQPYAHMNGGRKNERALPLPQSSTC
Sequence of PKCbeta 1 (P05771 whole entry): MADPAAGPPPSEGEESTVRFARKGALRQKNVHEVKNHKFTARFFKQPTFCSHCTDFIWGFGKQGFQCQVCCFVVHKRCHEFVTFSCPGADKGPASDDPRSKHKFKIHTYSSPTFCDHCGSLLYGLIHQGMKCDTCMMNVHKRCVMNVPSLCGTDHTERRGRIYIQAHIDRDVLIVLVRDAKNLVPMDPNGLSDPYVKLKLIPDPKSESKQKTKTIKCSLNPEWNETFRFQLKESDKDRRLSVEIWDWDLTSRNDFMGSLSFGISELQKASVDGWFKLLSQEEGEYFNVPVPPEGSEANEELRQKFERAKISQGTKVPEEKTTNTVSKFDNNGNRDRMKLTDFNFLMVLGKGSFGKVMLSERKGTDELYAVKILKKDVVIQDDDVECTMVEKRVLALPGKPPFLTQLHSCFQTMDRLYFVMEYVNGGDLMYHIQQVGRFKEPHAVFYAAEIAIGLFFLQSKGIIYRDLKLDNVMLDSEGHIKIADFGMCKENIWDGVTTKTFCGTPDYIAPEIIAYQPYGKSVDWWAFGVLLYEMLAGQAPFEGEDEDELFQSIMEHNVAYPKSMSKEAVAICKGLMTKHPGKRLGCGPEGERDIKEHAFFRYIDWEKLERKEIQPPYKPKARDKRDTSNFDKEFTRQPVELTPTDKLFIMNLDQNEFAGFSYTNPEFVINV
Sequence of TRKA (P04629 33-796): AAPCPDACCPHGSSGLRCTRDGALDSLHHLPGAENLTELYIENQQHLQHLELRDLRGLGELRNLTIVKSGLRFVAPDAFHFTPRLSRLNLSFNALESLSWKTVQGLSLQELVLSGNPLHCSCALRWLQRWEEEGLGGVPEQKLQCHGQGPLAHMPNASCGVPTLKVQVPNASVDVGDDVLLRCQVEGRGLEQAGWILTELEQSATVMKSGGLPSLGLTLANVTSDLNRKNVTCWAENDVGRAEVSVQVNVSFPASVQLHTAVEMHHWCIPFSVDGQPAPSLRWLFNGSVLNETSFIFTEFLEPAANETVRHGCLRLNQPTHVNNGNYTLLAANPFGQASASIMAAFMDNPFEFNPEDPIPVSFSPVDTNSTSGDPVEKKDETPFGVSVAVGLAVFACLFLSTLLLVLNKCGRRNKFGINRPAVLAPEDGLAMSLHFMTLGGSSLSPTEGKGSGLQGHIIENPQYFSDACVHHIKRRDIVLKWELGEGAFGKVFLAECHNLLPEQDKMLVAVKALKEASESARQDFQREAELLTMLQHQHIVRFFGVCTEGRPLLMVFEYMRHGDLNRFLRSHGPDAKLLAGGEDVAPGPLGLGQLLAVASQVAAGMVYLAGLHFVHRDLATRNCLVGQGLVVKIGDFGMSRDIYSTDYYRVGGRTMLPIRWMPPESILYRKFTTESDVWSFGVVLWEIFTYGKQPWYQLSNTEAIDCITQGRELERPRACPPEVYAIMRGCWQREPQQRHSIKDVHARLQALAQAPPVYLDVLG
Sequence of FLT-1 (VEGFR1) (P17948 27-1338): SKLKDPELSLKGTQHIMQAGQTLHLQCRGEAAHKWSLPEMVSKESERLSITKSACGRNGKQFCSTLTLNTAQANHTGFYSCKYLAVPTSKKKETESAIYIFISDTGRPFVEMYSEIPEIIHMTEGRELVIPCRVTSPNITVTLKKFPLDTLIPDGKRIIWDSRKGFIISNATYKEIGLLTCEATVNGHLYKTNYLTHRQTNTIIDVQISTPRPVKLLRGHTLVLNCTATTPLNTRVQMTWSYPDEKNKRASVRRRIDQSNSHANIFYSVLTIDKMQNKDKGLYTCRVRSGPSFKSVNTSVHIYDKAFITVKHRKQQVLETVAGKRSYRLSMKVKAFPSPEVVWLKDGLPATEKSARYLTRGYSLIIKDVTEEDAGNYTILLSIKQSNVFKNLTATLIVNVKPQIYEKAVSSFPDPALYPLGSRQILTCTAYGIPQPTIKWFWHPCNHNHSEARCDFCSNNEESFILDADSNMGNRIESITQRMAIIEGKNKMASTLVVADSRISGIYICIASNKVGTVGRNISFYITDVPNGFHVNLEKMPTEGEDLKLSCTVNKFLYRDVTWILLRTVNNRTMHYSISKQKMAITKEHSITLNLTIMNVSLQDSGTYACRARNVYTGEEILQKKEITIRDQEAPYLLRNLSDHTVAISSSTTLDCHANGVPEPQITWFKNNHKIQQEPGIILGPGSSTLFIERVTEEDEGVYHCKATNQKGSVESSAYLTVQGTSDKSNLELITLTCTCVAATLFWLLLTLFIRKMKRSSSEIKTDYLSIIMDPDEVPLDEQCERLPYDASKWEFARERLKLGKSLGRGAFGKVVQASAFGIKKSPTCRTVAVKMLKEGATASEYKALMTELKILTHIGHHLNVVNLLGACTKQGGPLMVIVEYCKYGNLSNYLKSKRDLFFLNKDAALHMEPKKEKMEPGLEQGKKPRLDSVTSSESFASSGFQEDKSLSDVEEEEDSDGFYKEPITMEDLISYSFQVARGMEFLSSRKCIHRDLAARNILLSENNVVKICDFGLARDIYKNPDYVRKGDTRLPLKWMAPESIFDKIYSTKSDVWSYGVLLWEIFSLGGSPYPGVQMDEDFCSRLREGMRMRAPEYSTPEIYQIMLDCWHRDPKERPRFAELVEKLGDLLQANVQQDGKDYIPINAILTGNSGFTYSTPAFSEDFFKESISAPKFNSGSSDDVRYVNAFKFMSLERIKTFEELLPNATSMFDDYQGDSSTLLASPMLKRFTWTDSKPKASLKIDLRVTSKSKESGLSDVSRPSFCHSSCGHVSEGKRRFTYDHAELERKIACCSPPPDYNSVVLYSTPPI
Sequence of RSK2 (P51812 whole entry): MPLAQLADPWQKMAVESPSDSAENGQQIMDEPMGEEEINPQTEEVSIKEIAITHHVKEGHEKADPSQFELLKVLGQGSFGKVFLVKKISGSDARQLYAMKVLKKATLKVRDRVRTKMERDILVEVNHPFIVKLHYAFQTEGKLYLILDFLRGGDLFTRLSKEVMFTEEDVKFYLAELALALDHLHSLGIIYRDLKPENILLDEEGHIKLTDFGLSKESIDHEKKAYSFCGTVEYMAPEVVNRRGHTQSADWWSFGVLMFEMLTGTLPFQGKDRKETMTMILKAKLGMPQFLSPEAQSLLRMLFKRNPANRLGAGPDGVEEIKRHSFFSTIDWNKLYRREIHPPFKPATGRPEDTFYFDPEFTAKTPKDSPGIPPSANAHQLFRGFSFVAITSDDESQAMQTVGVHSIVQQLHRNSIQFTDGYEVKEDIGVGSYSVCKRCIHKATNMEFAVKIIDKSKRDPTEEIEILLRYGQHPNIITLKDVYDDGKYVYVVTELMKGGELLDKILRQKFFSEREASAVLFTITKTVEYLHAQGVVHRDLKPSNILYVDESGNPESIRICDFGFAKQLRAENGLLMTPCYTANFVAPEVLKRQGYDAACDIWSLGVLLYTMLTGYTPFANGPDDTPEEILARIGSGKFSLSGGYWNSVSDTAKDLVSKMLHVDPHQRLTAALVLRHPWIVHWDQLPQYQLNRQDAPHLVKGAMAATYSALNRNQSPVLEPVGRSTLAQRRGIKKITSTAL

Row | Structure (SMILES) | GI50 [3, 29] [µM] | inhibition at 10 µM [4] [%] | inhibition at 10 µM [5] [%] | inhibition at 10 µM [6] [%] | inhibition at 10 µM [7] [%] | inhibition at 10 µM [8] [%] | inhibition at 10 µM [9] [%] | inhibition at 10 µM [10] [%] | inhibition at 10 µM [11] [%] | inhibition at 10 µM [12] [%] | inhibition at 10 µM [13] [%] | inhibition at 10 µM [14] [%] | inhibition at 10 µM [15] [%] | inhibition at 10 µM ([1]; IGF1R, 10 μM) [%] | inhibition at 10 µM [16] [%] | inhibition at 10 µM ([2]; PKCbeta 1, 10 μM) [%] | inhibition at 10 µM [17] [%] | inhibition at 10 µM [18] [%] | inhibition at 10 µM [19] [%] | inhibition at 10 µM [20] [%] | also measured
1 | COc1ccc2c(c1)[C@@]1(C[C@@H]1c1ccc3c(-c4ccc(N5CCN(C)CC5)nc4)n[nH]c3c1)C(=O)N2 (racemic) [Compound 2] | < 5 | – | – | – | – | – | – | – | – | – | – | – | – | – | – | – | – | – | – | – | inhibition at 10 µM [1]: -3%; inhibition at 10 µM [2]: -2%
2 | CN(C)Cc1ccc(/C=C/c2n[nH]c3cc([C@H]4C[C@@]45C(=O)Nc4ccccc45)ccc23)cc1 (racemic) [Compound 35] | < 5 | -7 | 86 | -3 | 5 | 59 | 1 | 22 | 86 | 100 | 32 | 39 | 55 | 0 | -5 | -2 | 75 | 53 | -4 | 2 | inhibition at 10 µM [21]: -22%; inhibition at 10 µM [22]: 10%; inhibition at 10 µM [23]: -2%; inhibition at 10 µM [24]: 30%; inhibition at 10 µM [25]: 9%; inhibition at 10 µM [26]: 2%; inhibition at 10 µM [27]: 101%; inhibition at 10 µM [28]: 6%
3 | COc1ccc2c(c1)/C(=C\c1ccc3c(/C=C/c4ccc(N5CCN(C)CC5)nc4)n[nH]c3c1)C(=O)N2 [Compound 3] | – | -5 | 33 | -4 | 2 | 14 | 2 | -4 | -2 | 13 | -20 | 0 | 4 | 5 | 12 | 1 | 6 | -2 | 6 | 6 | inhibition at 10 µM [21]: 22%; inhibition at 10 µM [22]: 3%; inhibition at 10 µM [23]: -3%; inhibition at 10 µM [24]: 30%; inhibition at 10 µM [25]: 2%; inhibition at 10 µM [26]: 5%; inhibition at 10 µM [27]: 43%; inhibition at 10 µM [28]: 7%; GI50 ([3]; HCC1954, read-out: GI50 Range HCC1954): < 5 µM
